Test results: publication PMC9578445, “Association of respiratory failure with inhibition of NaV1.6 in the phrenic nerve” (Channels, 2022)

Experiments:
Human NaV1.4 = target: T1, Human NaV1.4 (Homo sapiens, UniProt P35499); test: PatchXpress automated patch clamp, hyperpolarized-state protocol; assay type: cell-based; conditions: HEK 293 cells
T1 construct: expressed in transfected cells
Experimental: (§1) Sodium currents were recorded from recombinant Human Embryonic Kidney 293 cell lines stably overexpressing the respective sodium channel type (NaV1.2, 1.5, 1.4, 1.6, 1.7). Recording solutions were comprised of the following (in mM): Internal solution: 30 CsCl, 5 HEPES, 10 EGTA, 120 CsF, 5 NaF, 2 MgCl2, pH = 7.3 with CsOH; External solution 1: 40 NaCl, 120 NMDG, 1 KCl, 0.5 MgCl2, 5 HEPES, 2.7 CaCl2, pH to 7.3 with NaOH, used for NaV1.5 recordings; External solution 2: 150 NaCl, 5 KCl, 2 CaCl2, 1 MgCl2, 10 HEPES, 12 Dextrose, pH 7.3 with NaOH, used for NaV1.7, 1.6, 1.4, and 1.2 recordings.
(§2) Whole-cell currents were recorded from cells stably expressing NaV channels using the PatchXpress 7000A automated patch clamp platform (Molecular Devices, LLC; Sunnyvale, CA). A portable air-conditioning unit was installed on the PatchXpress instruments to maintain the temperature of the headstage at 21°C. Cells were voltage clamped at −60 mV for cell detection and sealing. At the start of each recording, a voltage curve and an inactivation curve was run for each cell to determine the voltage at which 50% of the channels reside in the inactivated state (V0.5 inact). The voltage curve was used to determine if the cell was adequately clamped; cells with currents larger than 10nA or with space clamp issues were not used further.
(§3) NaV1.7, NaV1.6, NaV1.4: Compound potency was measured in a hyperpolarized-state protocol where the holding potential for each cell was set to V0.5inact – 20 mV. A pulse train consisting of 7 consecutive double pulses, 8 second hypepolarizing prepulse to −120 mV followed by a test pulse to −10 mV was applied at a frequency of 0.1 Hz. First, vehicle (0.3% DMSO) was added to establish a baseline measurement. Once baseline was established, test compounds were added. Cells were exposed to compound for 5 minutes at 20 mV negative to V0.5inact then exposed to the same hyperpolarized voltage protocol. (no pulsing during compound incubation). A washout was performed to measure recovery of the sodium currents from inhibition.
(§4) Recordings were included for analysis when current amplitude reached steady-state in vehicle, compound inhibition was concentration-dependent and currents recovered during wash-out periods. Raw data from PatchXpress experiments were retrieved from the database and analyzed using the DataXpress 2 software (Molecular Devices).
(§5) At least 3 concentrations (3–9 replicates per concentration) were tested and at least one concentration had to cause 20–80% current inhibition.

Human NaV1.7 = target: T2, Human NaV1.7 (Homo sapiens, UniProt Q15858); test: as above; assay type: cell-based; conditions: HEK 293 cells
T2 construct: expressed in transfected cells
Experimental: as §1, §2, §3, §4, §5

Rat NaV1.6 = target: T3, Rat NaV1.6 (Rattus norvegicus, UniProt O88420); test: as above; assay type: cell-based; conditions: for IC50: HEK cells, hyperpolarized protocol
T3 construct: expressed in transfected cells; host or cells: HEK cells
Experimental: as §1, §2, §3, §4, §5

phrenic nerve = test: Rat phrenic nerve firing assay; conditions: rat in vivo, measured at 30 minutes
Experimental: To determine direct effects on phrenic nerve activity, male CD rats were anesthetized and instrumented as described above for the CV/R assay. In addition, an incision was made in the ventral neck area and the right phrenic nerve identified anatomically and isolated via blunt dissection. The phrenic nerve was placed over a high impedance bipolar hook electrode and the nerve covered with mineral oil to prevent desiccation. Animals were mechanically ventilated via a tracheotomy (~10 mL/kg, 40–70 breaths/min, titrated individually to stabilize phrenic activity) following neuromuscular block (pancuronium 0.5–1 mg/kg, iv) and bilateral vagotomy to better define test agent effects on phrenic nerve activity. Anesthesia was verified repeatedly following pancuronium administration by testing the BP/HR response to noxious stimuli. Spontaneous electrical activity was continuously recorded and then later rectified and averaged to calculate frequency, width, peak height of bursts, and magnitude. Magnitude of the activity was calculated by taking the absolute value of the raw signal and then averaging that signal over 50 ms increments. The resulting average signal was then converted to magnitude by subtracting the […] for each phrenic burst complex. The resulting magnitude values were then averaged over 1 minute increments to result in the graphs shown. Figure S1 in the Supplemental Information illustrates this analytical procedure.
(§6) For in vivo CVR and phrenic nerve activity studies, all raw signals were amplified via general purposed biological amplifier (filter settings DC – 3-5 KhZ) then digitized, calibrated and collected at a minimum of 500 Hz (1000 Hz for ECG and 2000 Hz for cardiac electrograms, and 10 KHz for phrenic nerve activity) using Notocord-HEM data acquisition and analysis software. The raw signal was filtered following acquisition with a bandpass filter set to 200–800 Hz). Vehicle (100% dimethylformamdide, DMF) or compound formulated in the vehicle was administered as a 30-minute IV infusion at 0.0167 μL/g body weight/min. Doses were selected to achieve unbound plasma concentrations in range of measured Nav1.6 IC50 values when infused at 0.0167uL/g body weight/min based on measured rat clearance, plasma protein binding and Nav1.6 IC50. Exposure in rats was determined in separate pharmacokinetics experiments where compounds were administered via IV dosing.

[1] = Plasma exposure in phrenic nerve activity assay; assay type: in vivo; conditions: rat; for concentration at 30 min / concentration at 15 min: CD, plasma, intravenous
From the text: as §6

[2] = Plasma exposure in rat CV/R assay; assay type: in vivo; conditions: for concentration at 15 min / concentration at 30 min: CD, plasma, iv; for concentration at 15 min / concentration at 30 min / Total [plasma] / Unbound [plasma]: rat, IV infusion; for unbound plasma concentration just prior to death: blood samples taken just prior to death; for Total [plasma] / Unbound [plasma]: just prior to death
From the text: as §6, with “Doses were selected to achieve unbound plasma concentrations in range of measured Nav1.6 IC50 values when infused at 0.0167uL/g body weight/min based on measured rat clearance, plasma protein binding and Nav1.6 IC50.” left out

Pgp = Pgp (Homo sapiens, UniProt P08183); test: Permeability BA/AB ratio (Pgp transport); assay type: in vitro ADME; conditions: not told
Nav1.6 = Nav1.6 (Homo sapiens, UniProt Q9UQD0); test: PatchXpress automated patch clamp, hyperpolarized-state protocol; assay type: cell-based; set-up: expressed in transfected cells; conditions: for IC50: HEK 293 cells, hyperpolarized protocol
Experimental: as §1, §2, §3, §4, §5

[3] = 30 mg/kg, read-out: Total [plasma]
[4] = 30 mg/kg, read-out: Unbound [plasma]
[5] = 14 mg/kg, 14 mg/kg, read-out: Total [plasma]
[6] = 14 mg/kg, 14 mg/kg, read-out: Unbound [plasma]
[7] = male, 7 mg/kg, 7 mg/kg, read-out: Total [plasma]
[8] = male, 7 mg/kg, 7 mg/kg, read-out: Unbound [plasma]
[9] = male, 30 mg/kg, 30 mg/kg, read-out: Total [plasma]
[10] = male, 30 mg/kg, 30 mg/kg, read-out: Unbound [plasma]
[11] = 10 mg/kg, 10 mg/kg, read-out: Total [plasma]
[12] = 10 mg/kg, 10 mg/kg, read-out: Unbound [plasma]
[13] = 60 mg/kg, read-out: Total [plasma]
[14] = 60 mg/kg, read-out: Unbound [plasma]
[15] = 1 mg/kg, 1 mg/kg, read-out: Total [plasma]
[16] = 1 mg/kg, 1 mg/kg, read-out: Unbound [plasma]

T1 sequence (P35499 whole entry): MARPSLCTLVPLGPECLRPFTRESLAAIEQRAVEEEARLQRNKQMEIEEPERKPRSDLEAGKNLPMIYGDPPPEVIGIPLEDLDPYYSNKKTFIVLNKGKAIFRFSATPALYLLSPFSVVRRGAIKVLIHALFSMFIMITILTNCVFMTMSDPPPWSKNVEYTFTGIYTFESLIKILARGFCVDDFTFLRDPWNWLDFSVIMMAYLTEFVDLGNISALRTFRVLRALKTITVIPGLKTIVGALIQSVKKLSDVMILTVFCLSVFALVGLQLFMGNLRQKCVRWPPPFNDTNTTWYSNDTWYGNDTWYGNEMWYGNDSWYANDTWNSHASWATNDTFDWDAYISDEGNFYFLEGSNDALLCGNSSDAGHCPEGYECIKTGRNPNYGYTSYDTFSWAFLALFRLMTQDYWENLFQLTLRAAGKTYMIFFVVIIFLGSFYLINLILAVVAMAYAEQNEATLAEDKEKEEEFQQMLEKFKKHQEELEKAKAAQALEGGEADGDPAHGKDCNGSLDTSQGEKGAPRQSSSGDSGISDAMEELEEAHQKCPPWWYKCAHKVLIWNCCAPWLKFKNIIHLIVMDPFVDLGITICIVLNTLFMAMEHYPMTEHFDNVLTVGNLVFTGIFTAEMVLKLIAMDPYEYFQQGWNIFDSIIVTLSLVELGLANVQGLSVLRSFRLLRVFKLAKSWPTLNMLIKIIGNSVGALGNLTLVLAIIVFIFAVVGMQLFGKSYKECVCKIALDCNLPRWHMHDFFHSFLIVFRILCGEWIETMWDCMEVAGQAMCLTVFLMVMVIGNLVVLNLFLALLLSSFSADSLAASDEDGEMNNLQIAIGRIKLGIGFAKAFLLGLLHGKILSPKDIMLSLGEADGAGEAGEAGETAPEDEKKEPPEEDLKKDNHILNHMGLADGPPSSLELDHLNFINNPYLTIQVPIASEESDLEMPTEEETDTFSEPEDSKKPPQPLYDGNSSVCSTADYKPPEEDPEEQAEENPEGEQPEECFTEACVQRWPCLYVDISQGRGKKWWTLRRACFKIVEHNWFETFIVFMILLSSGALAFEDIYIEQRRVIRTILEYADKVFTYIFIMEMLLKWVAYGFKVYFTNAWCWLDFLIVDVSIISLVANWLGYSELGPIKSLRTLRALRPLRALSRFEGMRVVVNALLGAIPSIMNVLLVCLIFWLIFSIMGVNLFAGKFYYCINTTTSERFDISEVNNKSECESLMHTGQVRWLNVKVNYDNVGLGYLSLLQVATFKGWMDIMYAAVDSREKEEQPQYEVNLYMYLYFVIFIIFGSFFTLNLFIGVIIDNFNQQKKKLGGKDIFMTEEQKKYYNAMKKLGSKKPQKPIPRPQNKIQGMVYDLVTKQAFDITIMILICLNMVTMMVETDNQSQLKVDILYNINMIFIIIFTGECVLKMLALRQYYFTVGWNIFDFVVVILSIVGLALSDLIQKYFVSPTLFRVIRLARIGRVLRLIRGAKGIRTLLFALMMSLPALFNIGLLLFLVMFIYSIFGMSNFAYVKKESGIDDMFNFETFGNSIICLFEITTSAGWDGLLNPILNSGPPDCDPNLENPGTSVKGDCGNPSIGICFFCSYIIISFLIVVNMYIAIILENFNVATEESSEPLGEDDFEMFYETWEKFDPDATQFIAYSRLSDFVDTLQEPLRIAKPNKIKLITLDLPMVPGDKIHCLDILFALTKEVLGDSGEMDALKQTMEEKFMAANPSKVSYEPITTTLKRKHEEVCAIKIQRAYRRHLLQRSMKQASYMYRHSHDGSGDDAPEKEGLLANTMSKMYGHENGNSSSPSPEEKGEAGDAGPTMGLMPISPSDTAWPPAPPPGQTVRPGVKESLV
Pgp, sequence (P08183 whole entry): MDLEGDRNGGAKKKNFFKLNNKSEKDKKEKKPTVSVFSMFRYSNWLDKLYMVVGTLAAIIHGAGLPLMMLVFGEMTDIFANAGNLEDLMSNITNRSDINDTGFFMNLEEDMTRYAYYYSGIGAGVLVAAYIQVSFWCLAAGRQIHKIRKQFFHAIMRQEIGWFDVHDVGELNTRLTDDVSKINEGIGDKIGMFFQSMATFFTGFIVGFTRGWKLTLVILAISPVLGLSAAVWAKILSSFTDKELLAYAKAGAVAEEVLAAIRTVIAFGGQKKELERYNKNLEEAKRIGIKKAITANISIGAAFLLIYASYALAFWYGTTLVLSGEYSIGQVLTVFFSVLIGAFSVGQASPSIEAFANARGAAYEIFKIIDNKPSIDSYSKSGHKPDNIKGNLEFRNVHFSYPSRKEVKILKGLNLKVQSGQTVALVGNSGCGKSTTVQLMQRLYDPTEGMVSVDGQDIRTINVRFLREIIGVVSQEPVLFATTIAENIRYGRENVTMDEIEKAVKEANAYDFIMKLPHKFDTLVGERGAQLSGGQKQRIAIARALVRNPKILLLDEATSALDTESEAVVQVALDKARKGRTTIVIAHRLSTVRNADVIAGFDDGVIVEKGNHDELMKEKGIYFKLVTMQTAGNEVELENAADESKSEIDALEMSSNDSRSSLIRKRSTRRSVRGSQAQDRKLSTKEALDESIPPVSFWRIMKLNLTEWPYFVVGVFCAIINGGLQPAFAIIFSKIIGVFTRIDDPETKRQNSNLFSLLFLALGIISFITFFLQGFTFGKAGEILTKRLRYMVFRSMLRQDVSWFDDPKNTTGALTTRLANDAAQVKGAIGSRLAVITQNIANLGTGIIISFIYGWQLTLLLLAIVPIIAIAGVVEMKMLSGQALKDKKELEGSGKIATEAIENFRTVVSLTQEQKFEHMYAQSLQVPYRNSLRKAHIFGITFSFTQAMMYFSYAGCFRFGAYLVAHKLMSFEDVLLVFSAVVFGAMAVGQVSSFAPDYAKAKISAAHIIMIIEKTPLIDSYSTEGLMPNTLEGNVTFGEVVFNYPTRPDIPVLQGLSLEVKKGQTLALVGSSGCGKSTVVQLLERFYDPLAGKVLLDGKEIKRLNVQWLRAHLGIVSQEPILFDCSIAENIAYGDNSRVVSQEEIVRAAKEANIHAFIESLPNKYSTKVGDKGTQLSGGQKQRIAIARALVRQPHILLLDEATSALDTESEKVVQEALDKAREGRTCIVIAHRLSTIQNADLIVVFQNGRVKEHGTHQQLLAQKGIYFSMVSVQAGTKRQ
Nav1.6, sequence (Q9UQD0 whole entry): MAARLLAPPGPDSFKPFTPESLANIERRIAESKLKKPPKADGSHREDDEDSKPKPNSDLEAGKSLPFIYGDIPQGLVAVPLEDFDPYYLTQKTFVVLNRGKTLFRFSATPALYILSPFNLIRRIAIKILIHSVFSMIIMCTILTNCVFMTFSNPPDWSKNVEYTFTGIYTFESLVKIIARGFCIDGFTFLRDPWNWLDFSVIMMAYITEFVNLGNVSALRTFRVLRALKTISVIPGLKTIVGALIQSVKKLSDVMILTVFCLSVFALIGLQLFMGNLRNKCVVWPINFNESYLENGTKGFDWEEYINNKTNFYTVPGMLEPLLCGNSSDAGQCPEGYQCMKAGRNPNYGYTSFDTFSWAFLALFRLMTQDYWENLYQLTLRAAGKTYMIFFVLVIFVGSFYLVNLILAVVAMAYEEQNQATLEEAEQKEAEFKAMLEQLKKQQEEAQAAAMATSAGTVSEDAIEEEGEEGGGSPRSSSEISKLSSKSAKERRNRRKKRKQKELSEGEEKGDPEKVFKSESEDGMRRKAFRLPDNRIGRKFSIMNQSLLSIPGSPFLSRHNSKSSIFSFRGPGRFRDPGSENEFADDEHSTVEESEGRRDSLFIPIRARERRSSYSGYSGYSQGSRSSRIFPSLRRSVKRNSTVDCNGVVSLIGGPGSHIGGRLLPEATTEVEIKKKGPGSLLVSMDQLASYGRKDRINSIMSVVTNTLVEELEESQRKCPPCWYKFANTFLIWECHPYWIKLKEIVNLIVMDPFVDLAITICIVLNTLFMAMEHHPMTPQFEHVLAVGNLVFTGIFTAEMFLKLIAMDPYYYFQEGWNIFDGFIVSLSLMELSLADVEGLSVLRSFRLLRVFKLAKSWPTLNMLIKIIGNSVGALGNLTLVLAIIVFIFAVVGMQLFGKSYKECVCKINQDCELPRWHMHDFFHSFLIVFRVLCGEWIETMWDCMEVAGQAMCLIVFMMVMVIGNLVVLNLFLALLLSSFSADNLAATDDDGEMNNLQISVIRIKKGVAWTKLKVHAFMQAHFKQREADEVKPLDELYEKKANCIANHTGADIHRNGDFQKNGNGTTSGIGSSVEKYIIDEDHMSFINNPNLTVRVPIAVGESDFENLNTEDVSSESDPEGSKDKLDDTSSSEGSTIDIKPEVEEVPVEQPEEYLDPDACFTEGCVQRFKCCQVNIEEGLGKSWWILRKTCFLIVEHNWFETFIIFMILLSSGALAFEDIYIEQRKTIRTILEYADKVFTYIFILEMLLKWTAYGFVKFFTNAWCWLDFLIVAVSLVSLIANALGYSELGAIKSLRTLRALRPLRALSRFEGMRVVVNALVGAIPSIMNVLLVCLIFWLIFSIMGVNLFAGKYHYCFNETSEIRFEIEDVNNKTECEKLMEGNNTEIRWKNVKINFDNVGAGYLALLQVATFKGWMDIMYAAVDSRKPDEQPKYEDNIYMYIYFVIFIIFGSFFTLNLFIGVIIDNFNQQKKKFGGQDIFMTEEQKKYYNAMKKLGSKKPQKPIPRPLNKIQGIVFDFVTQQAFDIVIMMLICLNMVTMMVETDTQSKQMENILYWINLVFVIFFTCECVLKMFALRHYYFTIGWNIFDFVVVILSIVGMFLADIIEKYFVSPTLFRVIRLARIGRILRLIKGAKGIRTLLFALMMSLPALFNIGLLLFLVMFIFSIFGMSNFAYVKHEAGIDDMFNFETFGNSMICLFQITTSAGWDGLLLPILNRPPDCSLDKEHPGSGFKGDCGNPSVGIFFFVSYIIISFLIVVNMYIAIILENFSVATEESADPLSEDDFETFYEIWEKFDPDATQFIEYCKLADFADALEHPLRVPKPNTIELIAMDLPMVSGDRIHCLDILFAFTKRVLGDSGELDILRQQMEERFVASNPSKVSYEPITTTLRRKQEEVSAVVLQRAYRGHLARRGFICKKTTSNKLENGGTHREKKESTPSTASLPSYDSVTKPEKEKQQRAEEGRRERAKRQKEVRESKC

O=S(=O)(Nc1nccs1)c1cc(Cl)c(NCCCCNC[C@H]2CCCN2)cc1F [SSCI-1]
IC50 (Human NaV1.4): > 30000 nM
IC50 (Human NaV1.7): 65 nM
IC50 (Rat NaV1.6): 19000 nM
percent decrease in the magnitude of the phrenic nerve signal (phrenic nerve): did not show any decrease
concentration at 30 min [1, 3]: 236 ± 110 µM
concentration at 30 min [1, 4]: 15.8 ± 7.37 µM
concentration at 15 min [2, 5]: 88.3 ± 5.6 µM
concentration at 15 min [2, 6]: 5.9 ± 0.4 µM
concentration at 30 min [2, 5]: 104 ± 5.2 µM
concentration at 30 min [2, 6]: 7 ± 0.3 µM
concentration at 15 min [2, 7]: 54.4 ± 3.2 µM
concentration at 15 min [2, 8]: 3.6 ± 0.2 µM
concentration at 30 min [2, 7]: 76.7 ± 4.1 µM
concentration at 30 min [2, 8]: 5.1 ± 0.3 µM
concentration at 15 min [2, 9]: 230 ± 12 µM
concentration at 15 min [2, 10]: 15.4 ± 0.8 µM
concentration at 30 min [2, 9]: 252 ± 4 µM
concentration at 30 min [2, 10]: 16.9 ± 0.3 µM
unbound plasma exposure ([2]; rat CV/R assay, no mortality): 16.9 µM
efflux ratio (Pgp): ~1.1
IC50 (Nav1.6): > 30000 nM

C[C@H](c1cccc2c1CNCC2)n1c(=O)oc2cc(S(=O)(=O)Nc3ncns3)ccc21 [SSCI-3]
IC50 (Human NaV1.4): > 30000 nM
IC50 (Human NaV1.7): 1000 nM
IC50 (Rat NaV1.6): 8100 nM
percent decrease in the magnitude of the phrenic nerve signal (phrenic nerve): 74.2%
concentration at 15 min [1, 3]: 32.1 ± 3.4 µM
concentration at 15 min [1, 4]: 3.78 ± 0.4 µM
Total [plasma] ([1]; 30 mg/kg, 22–30 min): 43.549 ± 3.116 µM
Unbound [plasma] ([1]; 30 mg/kg, 22–30 min): 5.138 ± 0.36 µM
concentration at 15 min [2, 11]: 32.1 ± 2 µM
concentration at 15 min [2, 12]: 3.8 ± 0.2 µM
concentration at 30 min [2, 11]: 43.5 ± 1.8 µM
concentration at 30 min [2, 12]: 5.1 ± 0.2 µM
concentration at 15 min [2, 9]: 108 ± 4.1 µM
concentration at 15 min [2, 10]: 12.7 ± 0.5 µM
unbound plasma concentration just prior to death ([2]; rat CV/R assay): 20.2 µM
Total [plasma] ([2]; 30 mg/kg, 20–21 min): 171.2 ± 10.2a μM
Unbound [plasma] ([2]; 30 mg/kg, 20–21 min): 20.2 ± 1.2a μM
efflux ratio (Pgp): ~1.03
IC50 (Nav1.6): 1110 nM

N#Cc1cc(S(=O)(=O)Nc2cscn2)ccc1Oc1ccc(Cl)cc1-c1ccnn1C1CNC1 [SSCI-5]
IC50 (Human NaV1.4): > 30000 nM
IC50 (Human NaV1.7): 2100 nM
IC50 (Rat NaV1.6): 7400 nM
percent decrease in the magnitude of the phrenic nerve signal (phrenic nerve): 76.1%
concentration at 15 min [1, 13]: 82.7 ± 15.2 µM
concentration at 15 min [1, 14]: 10.6 ± 1.94 µM
concentration at 30 min [1, 13]: 86.2 ± 42.1 µM
concentration at 30 min [1, 14]: 11 ± 5.39 µM
concentration at 15 min [2, 9]: 38.2 ± 1.6 µM
concentration at 15 min [2, 10]: 4.9 ± 0.2 µM
concentration at 30 min [2, 9]: 42.1 ± 1.2 µM
concentration at 30 min [2, 10]: 5.4 ± 0.2 µM
concentration at 15 min ([2]; male, 60 mg/kg, 60 mg/kg, read-out: Total [plasma]): 67.7 µM
concentration at 15 min ([2]; male, 60 mg/kg, 60 mg/kg, read-out: Unbound [plasma]): 8.7 µM
unbound plasma concentration just prior to death ([2]; rat CV/R assay): 19.7 µM
Total [plasma] ([2]; 60 mg/kg, 21–23 min): 154a μM
Unbound [plasma] ([2]; 60 mg/kg, 21–23 min): 19.7a μM
efflux ratio (Pgp): < 999
IC50 (Nav1.6): 4610 nM

COc1ccc(CCC(c2cccc3c2CNCC3)n2c(=O)oc3cc(S(=O)(=O)Nc4ncns4)c(F)cc32)cc1 (centres unmarked) [SSCI-6]
IC50 (Human NaV1.7): 290 nM
IC50 (Rat NaV1.6): > 41 nM
inhibition at 0.041 µM (Rat NaV1.6; at 41 nM): 45%
concentration at 15 min [2, 15]: 1.4 ± 0.2 µM
concentration at 15 min [2, 16]: 0.025 ± 0.004 µM
concentration at 30 min [2, 15]: 1.5 µM
concentration at 30 min [2, 16]: 0.027 µM
unbound plasma concentration just prior to death ([2]; rat CV/R assay): 0.05 µM
Total [plasma] ([2]; 1 mg/kg, 20–23 min): 2.8a μM
Unbound [plasma] ([2]; 1 mg/kg, 20–23 min): 0.050a μM
fold more potent at inhibiting NaV1.6 channels (Nav1.6): approximately 10 fold
IC50 (Nav1.6): 23 nM
